# Laboratory results published in patent US10195204B2, “Methods of treating hemoglobinopathies” (DUKE UNIVERSITY, priority 2011, dated 2019).
# How the values were obtained:
# [1] = test system: glycophorin A phosphorylation; assay: 32P labeling, glycophorin A immunoprecipitation and phosphorylation in SS RBCs; assay type: cell-based, human
# Text: Glycophorin A phosphorylation and immunoprecipitation. […] Cells were then washed 4 times. […] Blots were immunostained with anti-glycophorin A mAb.
# [2] = test system: AA RBC membrane ghost phosphopeptides; assay: Label-free quantitative phosphoproteomic analysis of normal (AA) RBC membrane ghosts; assay type: cell-based, human
# Experimental: (§1) Ghosted RBCs were spun at 14,000 rpm for 15 min at 4° C. to pellet membranes. Membrane pellets were washed with 1 mL 50 mM ammonium bicarbonate (pH 8.0) with vortexing and were then spun at 14,000 rpm for 30 min at 4° C. The supernatant was then removed and 500 μL of 50 mM ammonium bicarbonate with μL 0.2% acid-labile surfactant (ALS-1) in 50 mM ammonium bicarbonate (pH 8.0) was added. Samples were subjected to probe sonication three-times for 5 sec with cooling on ice between and insoluble material was cleared by centrifugation at 14,000 rpm for 30 mins at 4° C. Samples were normalized to approximately 2 μg/μl following a micro-Bradford assay (Pierce Bioscience), and were reduced with a final concentration of 10 mM dithiothreitol at 80° C. for 20 min. Samples were then alkylated with a final concentration of 20 mM iodoacetamide at room temperature for 45 min and trypsin was added to a final ratio of 1-to-50 (w/w) enzyme-to-protein and allowed to digest at 37° C. for 18 hr. To remove ALS-1, samples were acidified to pH 2.0 with neat TFA, incubated at 60° C. for 2 hrs and spun at 14,000 rpm to remove hydrolyzed ALS-1. Samples were either subjected directly to LC-MS analysis or subjected to a TiO2 based phosphopeptide enriched protocol.
# To enrich for phosphorylated peptides prior to LC-MS analysis, either 1,125 μg and 970 μg of total digested protein from RBC ghosts co-incubated with recombinant active ERK2 experiments and experiments using epinephrine-treated cells, respectively, were brought to near dryness using vacuum centrifugation and then resuspended in 200 μL of 80% acetonitrile, 1% TFA, 50 mg/ml MassPrep Enhancer (pH 2.5) (Waters Corp. Milford, Mass.). Samples were loaded onto an in-house packed TiO2 spin column (Protea Biosciences) with a 562 μg or 485 μg binding capacity for active ERK2 treated or epinephrine treated experiments, respectively. Samples were washed twice with 200 μL 80% acetonitrile, 1% TFA, 50 mg/ml MassPrep Enhancer (pH 2.5) followed by two washes with 200 μL 80% acetonitrile, 1% TFA (pH 2.5). Retained peptides were eluted twice with 100 μL 20% acetonitrile, 5% aqueous ammonia (pH 10.0), acidified to pH 3 with neat formic acid and then brought to dryness using vacuum centrifugation. […]
# MS data from each phosphopeptide enriched sample was acquired on a Thermo LTQ-Orbitrap XL mass spectrometer operating in positive-ion mode with an electrospray voltage of 2.0 kV with real-time lockmass correction on ambiant polycyclodimethylsiloxane (m/z 445.120025) enabled. […] Each sample was analyzed four-times, one of which was used for additional qualitative identifications only and was not included in the quantitative analysis, with product ions above a threshold of 500 counts were acquired for the top 5 most intense ions in the linear ion trap. […]
# [3] = test system: human SS RBC adhesion in inflamed venules and vaso-occlusion; assay: Intravital microscopy in TNF-α-treated nude mice infused with human SS RBCs treated ex vivo with MEK inhibitor; settings: for percentage of venular length occupied by treated SS RBCs: compared to sham
# Text: For some in vivo adhesion studies, packed SS RBCs were fluorescently labeled with the dye Dil (Molecular Probes Inc., Eugene, Oreg.), following the manufacturer's instructions. […] Cell morphology was checked by microscopy.
# [4] = test system: SS RBC membrane ghost phosphopeptides; assay: Label-free quantitative phosphoproteomic analysis of SS RBC membrane ghosts; assay type: cell-based, human
# Experimental: as §1
# To enrich for phosphorylated peptides prior to LC-MS analysis, either 1,125 μg and 970 μg of total digested protein from RBC ghosts co-incubated with recombinant active ERK2 experiments and experiments using epinephrine-treated cells, respectively, were brought to near dryness using vacuum centrifugation and then resuspended in 200 μL of 80% acetonitrile, 1% TFA, 50 mg/ml MassPrep Enhancer (pH 2.5) (Waters Corp. Milford, Mass.). Samples were loaded onto an in-house packed TiO2 spin column (Protea Biosciences) with a 562 μg or 485 μg binding capacity for active ERK2 treated or epinephrine treated experiments, respectively. Samples were washed twice with 200 μL 80% acetonitrile, 1% TFA, 50 mg/ml MassPrep Enhancer (pH 2.5) followed by two washes with 200 μL 80% acetonitrile, 1% TFA (pH 2.5). Retained peptides were eluted twice with 100 μL 20% acetonitrile, 5% aqueous ammonia (pH 10.0), acidified to pH 3 with neat formic acid and then brought to dryness using vacuum centrifugation. Prior to LC-MS analysis, each sample was resuspended in 20 μL 2% acetonitrile, 0.1% TFA, 25 mM citric acid (pH 2.5).
# Chromatographic separation of phosphopeptide enriched or non-enriched samples was performed on a Waters NanoAquity UPLC equipped with a 1.7 μm BEH130 C1875 μm I.D.×250 mm reversed-phase column. The mobile phase consisted of (A) 0.1% formic acid in water and (B) 0.1% formic acid in acetonitrile. Five μL injections of each sample were trapped for 5 min on a 5 μm Symmetry C18 180 μm I.D.×20 mm column at 20 μl/min in 99.9% A. The analytical column was then switched in-line and the mobile phase was held for 5 min at 5% B before applying a linear elution gradient of 5% B to 40% B or 5% B to 30% B over 90 min at 300 nL/min for ERK2 treated experiments or epinephrine treated experiments, respectively. The analytical column was connected to fused silica PicoTip emitter (New Objective, Cambridge, Mass.) with a 10 μm tip orifice and coupled to the mass spectrometer through an electrospray interface.
# MS data from each phosphopeptide enriched sample was acquired on a Thermo LTQ-Orbitrap XL mass spectrometer operating in positive-ion mode with an electrospray voltage of 2.0 kV with real-time lockmass correction on ambiant polycyclodimethylsiloxane (m/z 445.120025) enabled. The instrument was set to acquire a precursor MS scan from m/z 400-2000 with r=60,000 at m/z 400 and a target AGC setting of 1e6 ions. Each sample was analyzed four-times, one of which was used for additional qualitative identifications only and was not included in the quantitative analysis, with product ions above a threshold of 500 counts were acquired for the top 5 most intense ions in the linear ion trap. […]
# [5] = test system: PMN adhesion to non-activated HUVECs; assay: Adhesion to HUVECs of PMNs co-incubated with epinephrine-stimulated SS RBCs; assay type: cell-based, human; settings: SS RBCs pre-incubated with inhibitor for 1 hour, then 20 nM epinephrine 1 min
# Experimental: The cells were then washed prior to admixture with fluorescently-labeled native polymorphonuclear cells (PMNs) obtained from healthy donors at a RBC:PMN ratio of 10:1. After co-incubation for 30 minutes at 37° C., cells mixtures were assayed for their ability to adhere to non-activated HUVECs. […] Downregulation of RBC adhesion receptor activity by targeting ERK may not only decrease SS RBC adhesion to the endothelium but also reduce RBC-stimulated leukocyte activation.
# [6] = test system: cAMP production in SS RBCs
# Experimental: Whole cell cAMP accumulation was assayed to assess the functional capacity of the RBC β2-ARs to stimulate the production of cAMP. Washed packed RBCs were pre-treated with IBMX to define basal cAMP accumulation, followed by treatment with epinephrine for 1 min or 30 min, or forskolin. Samples were placed on ice, stimulation was halted, and cells fixed by the addition of 12.5 mM EDTA. Cell samples were boiled, clarified by centrifugation and assayed for cAMP content by radioimmunoassay as described previously.^22 Basal cAMP production was subtracted from the total cAMP produced by the cells. The amounts of cAMP were then normalized as fmol cAMP/10^8 RBCs.
# [7] = SS RBCs treated ex vivo with 10 μM inhibitor for 1 hour, n=5
# [8] = SS RBCs vs SS RBCs treated with U0126
# [9] = SS RBCs, epinephrine 30 min vs 1 min
Compound,effect on combined effect of epinephrine and SPI on glycophorin A phosphorylation ([1]; SS RBCs pre-incubated with 10 μM U0126 for 1 h),effect on Ser540/Ser542 doubly phosphorylated peptide within protein 4.1 ([2]; AA RBCs treated with U0126),"human SS RBC adhesion in inflamed venules [3, 7]","vessel obstruction [3, 7]",percentage of venular length occupied by treated SS RBCs ([3]; vessels 25 μm in diameter),percentage of venular length occupied by treated SS RBCs ([3]; vessels with a diameter >25 μm),change of Ser540/Ser542 doubly phosphorylated peptide within protein 4.1 ([4]; SS RBCs treated with U0126) [fold],"unique RBC membrane phosphopeptides significantly down-regulated [4, 8]","unique phosphoproteins carrying the down-regulated phosphopeptides [4, 8]",ability of epinephrine-activated SS RBCs to promote neutrophil (PMN) adhesion to HUVECs [5],increase in glycophorin A phosphorylation over sham-treated SS RBCs ([1]; epinephrine in the presence of SPI) [fold],"change in phosphorylation of the CAP1 serine ([2]; AA RBCs, epinephrine 30 min vs 1 min)","change in phosphorylation of serine 310 within CAP1 [4, 9] [fold]","change in phosphorylation of threonine 307 within CAP1 [4, 9] [fold]","intracellular cAMP ([6]; epinephrine 1 min, about 50% of samples (n=19))",cAMP levels ([6]; epinephrine 30 min)
N#CC(=C(/N)Sc1ccccc1N)/C(C#N)=C(\N)Sc1ccccc1N [U0126],significantly decreased,did not induce a decrease,dramatically decreased,prevented vessel obstruction,significantly decreased,significantly decreased,−1.7,36,22,significantly decreased,–,–,–,–,–,–
CNC[C@H](O)c1ccc(O)c(O)c1 [epinephrine],–,–,–,–,–,–,–,–,–,–,2.93±0.35,+1.4 fold,−4.3,−1.4,accumulation of high levels of intracellular cAMP,uniformly declined
